Test results taken from article PMC7101356, “Cross-site and cross-platform variability of automated patch clamp assessments of drug effects on human cardiac currents in recombinant cells” (Scientific Reports, 2020).
Where two headings read alike, the source gives them in different places.

Key:
peak hNav1.5 = target: T1, peak hNav1.5 (Homo sapiens, UniProt Q14524); assay: Automated patch clamp, peak hNav1.5 current block; format: cell-based
T1 construct: expressed in transfected cells; host or cells: HEK293 or CHO, depending on site
T1 sequence (Q14524 whole entry): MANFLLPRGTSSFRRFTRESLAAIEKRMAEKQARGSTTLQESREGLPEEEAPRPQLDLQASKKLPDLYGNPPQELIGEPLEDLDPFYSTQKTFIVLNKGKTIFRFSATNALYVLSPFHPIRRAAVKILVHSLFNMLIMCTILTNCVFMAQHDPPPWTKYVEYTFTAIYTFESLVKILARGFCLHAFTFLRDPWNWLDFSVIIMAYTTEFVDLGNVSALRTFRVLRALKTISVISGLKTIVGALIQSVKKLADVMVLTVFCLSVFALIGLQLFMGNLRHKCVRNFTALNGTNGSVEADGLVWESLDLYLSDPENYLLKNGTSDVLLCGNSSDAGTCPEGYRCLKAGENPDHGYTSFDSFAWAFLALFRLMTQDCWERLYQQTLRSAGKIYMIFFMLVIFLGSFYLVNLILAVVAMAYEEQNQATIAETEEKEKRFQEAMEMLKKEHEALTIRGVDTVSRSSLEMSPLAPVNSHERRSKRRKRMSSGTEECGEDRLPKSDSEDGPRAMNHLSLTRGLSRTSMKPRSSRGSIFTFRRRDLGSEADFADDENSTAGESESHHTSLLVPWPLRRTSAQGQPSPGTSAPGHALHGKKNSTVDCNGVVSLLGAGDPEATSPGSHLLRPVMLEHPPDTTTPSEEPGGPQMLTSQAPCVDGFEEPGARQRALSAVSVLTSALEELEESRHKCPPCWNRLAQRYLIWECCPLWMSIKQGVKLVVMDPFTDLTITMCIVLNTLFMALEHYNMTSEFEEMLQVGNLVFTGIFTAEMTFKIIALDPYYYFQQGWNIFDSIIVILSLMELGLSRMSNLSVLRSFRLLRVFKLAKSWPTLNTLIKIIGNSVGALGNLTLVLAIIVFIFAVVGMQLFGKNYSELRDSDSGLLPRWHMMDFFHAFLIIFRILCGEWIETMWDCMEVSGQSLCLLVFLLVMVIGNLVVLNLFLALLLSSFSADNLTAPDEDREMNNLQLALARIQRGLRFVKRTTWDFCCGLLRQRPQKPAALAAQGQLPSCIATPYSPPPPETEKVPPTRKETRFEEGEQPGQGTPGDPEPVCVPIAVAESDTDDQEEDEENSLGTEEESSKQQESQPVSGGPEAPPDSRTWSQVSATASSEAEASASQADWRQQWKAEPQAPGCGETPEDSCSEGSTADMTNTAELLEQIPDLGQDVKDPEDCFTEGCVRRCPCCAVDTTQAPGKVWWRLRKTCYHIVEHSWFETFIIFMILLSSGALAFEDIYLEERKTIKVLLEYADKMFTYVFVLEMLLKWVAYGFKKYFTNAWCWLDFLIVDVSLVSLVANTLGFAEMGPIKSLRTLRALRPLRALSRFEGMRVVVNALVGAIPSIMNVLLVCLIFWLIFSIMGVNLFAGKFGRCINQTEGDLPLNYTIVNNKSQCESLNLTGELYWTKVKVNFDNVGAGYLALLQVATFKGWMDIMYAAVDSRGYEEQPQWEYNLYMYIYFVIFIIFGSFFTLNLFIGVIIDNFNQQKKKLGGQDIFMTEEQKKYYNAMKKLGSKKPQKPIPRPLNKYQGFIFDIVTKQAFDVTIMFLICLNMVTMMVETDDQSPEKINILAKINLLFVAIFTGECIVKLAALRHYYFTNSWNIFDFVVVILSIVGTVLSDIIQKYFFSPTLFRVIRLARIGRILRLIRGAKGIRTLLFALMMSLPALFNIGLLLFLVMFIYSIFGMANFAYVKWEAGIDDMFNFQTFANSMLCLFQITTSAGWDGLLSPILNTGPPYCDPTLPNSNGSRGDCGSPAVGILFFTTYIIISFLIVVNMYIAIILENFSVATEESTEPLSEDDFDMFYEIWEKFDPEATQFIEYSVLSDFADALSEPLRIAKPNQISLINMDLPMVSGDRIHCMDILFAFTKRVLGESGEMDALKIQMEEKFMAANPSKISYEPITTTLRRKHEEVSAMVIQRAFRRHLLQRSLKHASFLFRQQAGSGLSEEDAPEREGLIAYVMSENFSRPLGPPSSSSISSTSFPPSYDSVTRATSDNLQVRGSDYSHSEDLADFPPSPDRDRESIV

late hNav1.5 = target: T2, late hNav1.5 (Homo sapiens, UniProt Q14524); assay: Automated patch clamp, late hNav1.5 current block (ATX-II activated); format: cell-based
T2 construct: expressed in transfected cells; host or cells: HEK293 or CHO, depending on site
T2 sequence (Q14524 whole entry): as above
Description: However, all external solutions contained 30 nM ATX-II in order to activate late current. Late current was measured at its maximum during the repolarizing ramp.
Concentration-response relationships for each test article were independently investigated, i.e., each cell received only one test article, typically evaluating multiple concentrations in a cumulative fashion (lowest to highest concentrations). However, some platforms tested only one concentration per well. Each concentration response was based on a minimum of four concentrations, with a minimum of three wells used for each concentration. In cases of high variability, more cells per concentration were recorded. Prior to drug addition, cells received an addition of vehicle to measure non-test article-related effects such as addition artifacts. At the end of the experiment, a supramaximal concentration of a known inhibitory reference compound was applied to assess leak current and appropriate responsiveness of the test system.
(§1) The steady state current at each concentration was used to determine the concentration-response relationships. Mean concentration-response data were fitted to a standard sigmoidal four-parameter logistic equation (GraphPad Prism 7; GraphPad Inc., La Jolla, CA) of the form: Y=Bottom+(Top−Bottom)/(1+10^∧(LogIC50−X)∗HillSlope) where Y is the current inhibition (in % of pre-drug control), X is the logarithm of drug concentration, and IC50 is the drug concentration producing half-maximal current inhibition. Curve fitting was performed using the following constraints: Top = 100%, Bottom = 0%, Hill Slope <2. No curve fitting was performed in cases with an obvious lack of a concentration-dependent current inhibition and/or small effect size (approximately ≤20%).

[1] = based on CiPA evaluations; cited from earlier work
hCav1.2 = hCav1.2 (Homo sapiens, UniProt Q13936); assay: Automated patch clamp, hCav1.2 current block
Description: Peak current was measured during the step to 0 mV. Leak current was measured after applying a saturating concentration of a blocker such as cadmium (200 µM) at the end of each experiment to completely block hCav1.2 current.
Concentration-response relationships for each test article were independently investigated, i.e., each cell received only one test article, typically evaluating multiple concentrations in a cumulative fashion (lowest to highest concentrations). However, some platforms tested only one concentration per well. Each concentration response was based on a minimum of four concentrations, with a minimum of three wells used for each concentration. In cases of high variability, more cells per concentration were recorded. Prior to drug addition, cells received an addition of vehicle to measure non-test article-related effects such as addition artifacts. At the end of the experiment, a supramaximal concentration of a known inhibitory reference compound was applied to assess leak current and appropriate responsiveness of the test system. While it was recommended that a separate group of cells (n ≥ 3) be recorded for each experimental day to determine the baseline response to vehicle and to address day-to-day variability, this was not verified.
These criteria were applied to all APC platforms.
as §1

hERG = hERG (Homo sapiens, UniProt Q12809); assay: Automated patch clamp, hERG current block (consensus step-ramp protocol); settings: human, hERG K+ current inhibition, Mean, 1.00E-08 mol/L
[2] = site_platform s06_p4, 1.00E-08 mol/L
[3] = site_platform s06_p4, 3.00E-07 mol/L
[4] = site_platform s07_p6, 1.00E-08 mol/L
[5] = site_platform s07_p6, 3.00E-07 mol/L
[6] = site_platform s13_p2, 1.00E-08 mol/L
[7] = site_platform s13_p2, 3.00E-07 mol/L
[8] = site_platform s14_p1, 1.00E-08 mol/L
[9] = site_platform s14_p1, 3.00E-07 mol/L

CC(C)COCC(CN(Cc1ccccc1)c1ccccc1)N1CCCC1 (stereo not drawn) [bep, bepridil]
IC50 (peak hNav1.5): 2450 nM | log IC50, peak hNav1.5 Na+ current inhibition (peak hNav1.5; site_platform s01_p1): no inh. | Peak hNav1.5 Na+ current inhibition, Mean (peak hNav1.5; site_platform s01_p1, 1.00E-08 mol/L): 27.2% | Peak hNav1.5 Na+ current inhibition, Mean (peak hNav1.5; site_platform s01_p1, 3.00E-07 mol/L): 49.4% | log IC50, peak hNav1.5 Na+ current inhibition (peak hNav1.5; site_platform s02_p2): no inh. | Peak hNav1.5 Na+ current inhibition, Mean (peak hNav1.5; site_platform s02_p2, 1.00E-08 mol/L): 0.5% | Peak hNav1.5 Na+ current inhibition, Mean (peak hNav1.5; site_platform s02_p2, 3.00E-07 mol/L): 5.1% | log IC50, peak hNav1.5 Na+ current inhibition (peak hNav1.5; site_platform s04_p3): no inh. | Peak hNav1.5 Na+ current inhibition, Mean (peak hNav1.5; site_platform s04_p3, 1.00E-08 mol/L): 7.9% | Peak hNav1.5 Na+ current inhibition, Mean (peak hNav1.5; site_platform s04_p3, 3.00E-07 mol/L): 13.7% | log IC50, peak hNav1.5 Na+ current inhibition (peak hNav1.5; site_platform s06_p4): no inh. | Peak hNav1.5 Na+ current inhibition, Mean (peak hNav1.5; [2]): -6.3% | Peak hNav1.5 Na+ current inhibition, Mean (peak hNav1.5; [3]): 0.9% | log IC50, peak hNav1.5 Na+ current inhibition (peak hNav1.5; site_platform s07_p6): no inh. | Peak hNav1.5 Na+ current inhibition, Mean (peak hNav1.5; [4]): -3.3% | Peak hNav1.5 Na+ current inhibition, Mean (peak hNav1.5; [5]): -0.6% | nH, Hill slope, peak hNav1.5 inhibition (peak hNav1.5; site_platform s10_p3): 0.57 | Peak hNav1.5 Na+ current inhibition, Mean (peak hNav1.5; site_platform s10_p3, 1.00E-08 mol/L): 3.5% | Peak hNav1.5 Na+ current inhibition, Mean (peak hNav1.5; site_platform s10_p3, 3.00E-07 mol/L): 22.0% | IC50 (peak hNav1.5; site_platform s10_p3, read-out: log IC50, peak hNav1.5 inhibition (converted)): 2690 nM | log IC50, peak hNav1.5 inhibition (peak hNav1.5; site_platform s11_p1): no inh. | Peak hNav1.5 Na+ current inhibition, Mean (peak hNav1.5; site_platform s11_p1, 1.00E-08 mol/L): 4.3% | Peak hNav1.5 Na+ current inhibition, Mean (peak hNav1.5; site_platform s11_p1, 3.00E-07 mol/L): 10.4% | log IC50, peak hNav1.5 inhibition (peak hNav1.5; site_platform s12_p2): no inh. | Peak hNav1.5 Na+ current inhibition, Mean (peak hNav1.5; site_platform s12_p2, 1.00E-08 mol/L): 0.0% | Peak hNav1.5 Na+ current inhibition, Mean (peak hNav1.5; site_platform s12_p2, 3.00E-07 mol/L): 0.0% | log IC50, peak hNav1.5 inhibition (peak hNav1.5; site_platform s13_p2): no inh. | Peak hNav1.5 Na+ current inhibition, Mean (peak hNav1.5; [6]): 3.2% | Peak hNav1.5 Na+ current inhibition, Mean (peak hNav1.5; [7]): 6.7% | nH, Hill slope, peak hNav1.5 inhibition (peak hNav1.5; site_platform s14_p1): 0.78 | Peak hNav1.5 Na+ current inhibition, Mean (peak hNav1.5; [8]): 6.0% | Peak hNav1.5 Na+ current inhibition, Mean (peak hNav1.5; [9]): 17.8% | nH, Hill slope, peak hNav1.5 inhibition (peak hNav1.5; site_platform s15_p1): 0.68 | Peak hNav1.5 Na+ current inhibition, Mean (peak hNav1.5; site_platform s15_p1, 1.00E-08 mol/L): 13.5% | Peak hNav1.5 Na+ current inhibition, Mean (peak hNav1.5; site_platform s15_p1, 3.00E-07 mol/L): 51.4% | IC50 (peak hNav1.5; site_platform s15_p1, read-out: log IC50, peak hNav1.5 inhibition (converted)): 324 nM | nH, Hill slope, peak hNav1.5 inhibition (peak hNav1.5; site_platform s16_p3): 0.36 | Peak hNav1.5 Na+ current inhibition, Mean (peak hNav1.5; site_platform s16_p3, 1.00E-08 mol/L): 8.1% | Peak hNav1.5 Na+ current inhibition, Mean (peak hNav1.5; site_platform s16_p3, 3.00E-07 mol/L): 26.6% | IC50 (peak hNav1.5; site_platform s16_p3, read-out: log IC50, peak hNav1.5 inhibition (converted)): 4470 nM | nH, Hill slope, peak hNav1.5 inhibition (peak hNav1.5; site_platform s17_p1): 1.09 | Peak hNav1.5 Na+ current inhibition, Mean (peak hNav1.5; site_platform s17_p1, 1.00E-08 mol/L): 2.7% | Peak hNav1.5 Na+ current inhibition, Mean (peak hNav1.5; site_platform s17_p1, 3.00E-07 mol/L): 30.0% | IC50 (peak hNav1.5; site_platform s17_p1, read-out: log IC50, peak hNav1.5 inhibition (converted)): 676 nM | log IC50, peak hNav1.5 inhibition (peak hNav1.5; site_platform s18_p1): no inh. | Peak hNav1.5 Na+ current inhibition, Mean (peak hNav1.5; site_platform s18_p1, 1.00E-08 mol/L): 54.7% | Peak hNav1.5 Na+ current inhibition, Mean (peak hNav1.5; site_platform s18_p1, 3.00E-07 mol/L): 68.5% | nH, Hill slope, peak hNav1.5 inhibition (peak hNav1.5; site_platform s19_p3): 0.50 | Peak hNav1.5 Na+ current inhibition, Mean (peak hNav1.5; site_platform s19_p3, 1.00E-08 mol/L): 2.2% | Peak hNav1.5 Na+ current inhibition, Mean (peak hNav1.5; site_platform s19_p3, 3.00E-07 mol/L): 17.3% | IC50 (peak hNav1.5; site_platform s19_p3, read-out: log IC50, peak hNav1.5 inhibition (converted)): 6920 nM | nH, Hill slope, late hNav1.5 inhibition (late hNav1.5; site_platform s06_p4): 1.86 | Late hNav1.5 Na+ current inhibition, Mean (late hNav1.5; [2]): -0.5% | Late hNav1.5 Na+ current inhibition, Mean (late hNav1.5; [3]): 43.7% | IC50 (late hNav1.5; site_platform s06_p4, read-out: log IC50, late hNav1.5 inhibition (converted)): 363 nM | log IC50, late hNav1.5 inhibition (late hNav1.5; site_platform s07_p6): no inh. | Late hNav1.5 Na+ current inhibition, Mean (late hNav1.5; [4]): 5.5% | Late hNav1.5 Na+ current inhibition, Mean (late hNav1.5; [5]): 12.3% | log IC50, late hNav1.5 inhibition (late hNav1.5; site_platform s13_p2): no inh. | Late hNav1.5 Na+ current inhibition, Mean (late hNav1.5; [6]): 24.3% | Late hNav1.5 Na+ current inhibition, Mean (late hNav1.5; [7]): 29.9% | log IC50, late hNav1.5 inhibition (late hNav1.5; site_platform s14_p1): no inh. | Late hNav1.5 Na+ current inhibition, Mean (late hNav1.5; [8]): 54.2% | Late hNav1.5 Na+ current inhibition, Mean (late hNav1.5; [9]): 10.2% | TdP Risk Category [1]: High | Peak hCav1.2 Ca2+ current inhibition, Mean (hCav1.2; site s01_p1, 1.00E-08 mol/L): 5.6% | Peak hCav1.2 Ca2+ current inhibition, Mean (hCav1.2; site s01_p1, 3.00E-07 mol/L): 16.7% | nH, Hill slope (hCav1.2; site s02_p2, corrected for rundown): 0.64 | Peak hCav1.2 Ca2+ current inhibition, Mean (hCav1.2; site s02_p2, corrected for rundown, 1.00E-08 mol/L): 4.4% | Peak hCav1.2 Ca2+ current inhibition, Mean (hCav1.2; site s02_p2, corrected for rundown, 3.00E-07 mol/L): 34.4% | Peak hCav1.2 Ca2+ current inhibition, Mean (hCav1.2; site s04_p3, 1.00E-08 mol/L): 12.6% | Peak hCav1.2 Ca2+ current inhibition, Mean (hCav1.2; site s04_p3, 3.00E-07 mol/L): 17.5% | Peak hCav1.2 Ca2+ current inhibition, Mean (hCav1.2; site s06_p4, 1.00E-08 mol/L): 5.9% | Peak hCav1.2 Ca2+ current inhibition, Mean (hCav1.2; site s06_p4, 3.00E-07 mol/L): 13.9% | Peak hCav1.2 Ca2+ current inhibition, Mean (hCav1.2; site s11_p1, 1.00E-08 mol/L): 13.2% | Peak hCav1.2 Ca2+ current inhibition, Mean (hCav1.2; site s11_p1, 3.00E-07 mol/L): 21.4% | Peak hCav1.2 Ca2+ current inhibition, Mean (hCav1.2; site s14_p1, 1.00E-08 mol/L): -0.1% | Peak hCav1.2 Ca2+ current inhibition, Mean (hCav1.2; site s14_p1, 3.00E-07 mol/L): 8.2% | nH, Hill slope (hCav1.2; site s16_p3): 0.51 | Peak hCav1.2 Ca2+ current inhibition, Mean (hCav1.2; site s16_p3, 1.00E-08 mol/L): 8.6% | Peak hCav1.2 Ca2+ current inhibition, Mean (hCav1.2; site s16_p3, 3.00E-07 mol/L): 45.8% | Peak hCav1.2 Ca2+ current inhibition, Mean (hCav1.2; site s18_p1, 1.00E-08 mol/L): 28.2% | Peak hCav1.2 Ca2+ current inhibition, Mean (hCav1.2; site s18_p1, 3.00E-07 mol/L): 31.3% | inhibition at 1e-08 mol/L (hERG; site_platform s07_p5): 0.5% | inhibition at 4 min, 1e-08 mol/L (hERG; site_platform s10_p3): 1.5% | inhibition at 7 min, 1e-08 mol/L (hERG; site_platform s11_p1): 12% | inhibition at 7 min, 1e-08 mol/L (hERG; site_platform s14_p1): 41.9%
